Article PMC7693775, “AGTR1 Is Overexpressed in Neuroendocrine Neoplasms, Regulates Secretion and May Potentially Serve as a Target for Molecular Imaging and Therapy” (Cancers, 2020)
Where two headings read alike, the source gives them in different places.

Experiments:
BON cells [1] = assay type: cell-based, human; details: for effect on ATII-induced calcium signal: BON cells, preincubation 15-30 min before ATII (valsartan, PD123319: 1 µM)
AGTR1 [2] = target: T1, AGTR1 (Homo sapiens, UniProt P30556); test: competition binding with 125I-ATII, BON cells
T1 sequence (P30556 1-359): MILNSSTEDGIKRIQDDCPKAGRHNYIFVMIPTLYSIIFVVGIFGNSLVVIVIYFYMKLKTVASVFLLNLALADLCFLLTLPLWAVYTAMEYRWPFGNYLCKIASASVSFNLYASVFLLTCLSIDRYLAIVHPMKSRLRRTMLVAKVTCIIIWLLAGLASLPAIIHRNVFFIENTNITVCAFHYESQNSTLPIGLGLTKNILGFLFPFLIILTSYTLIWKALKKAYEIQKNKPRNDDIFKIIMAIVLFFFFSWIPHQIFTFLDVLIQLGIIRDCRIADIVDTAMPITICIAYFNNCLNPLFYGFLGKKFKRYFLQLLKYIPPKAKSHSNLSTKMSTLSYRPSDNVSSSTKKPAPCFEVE
Protocol: (§1) The Boc-protected ITCC dye (69 mg) was dissolved in DCM (3.0 mL) and subjected to deprotection by addition of TFA (300 µL). The reaction mixture was stirred for 2 h, the solvent removed under reduced pressure and the mixture codistilled with DCM several times to remove […]
(§2) TFA. […] MS (ESI): C39H51N4NaO7S2
(§3) 2.2 eq.) and DIPEA (7.2 µL, 42 µmol, 4.7 eq.) and the reaction mixture stirred for 1 h. The deprotected ITCC dye (8.0 mg, 9.0 µmol, 1.0 eq.) was dissolved in DMF (125 µL) with DIPEA (3.6 µL, 21 µmol, 2.3 eq.) and added to the reaction mixture which was stirred for additional 17 h. The mixture was precipitated from Et2O and the precipitate purified via flash chromatography (DCM/MeOH) to afford […]
(§4) Peptide iodination was performed as previously described [ 1 ].
(§5) (Sigma, Deisenhofen, Germany) were iodinated with 1 mCi carrier -free Na 125 I (NEZ033L010MC, Perkin Elmer, Waltham, MA, USA) and purified by HPLC (Analyt ic HPLC 1200 Series, Agilent, Santa Clara, CA, USA; see Figure S1 in supplementary material). The method for the competitive binding assay was described in detail before. For saturation experiments, binding buffer was prepared […]
(§6) of additional unlabeled peptide (total binding). Non -specific binding was subtracted from total binding to obtain spec ific binding. […]

AGTR1 [3] = target: T1, AGTR1; test: competition binding with 125I-ATII, H727 cells
Protocol: as §1, §2, §3, §4, §5, §6

H727 cells [4] = test: intracellular calcium mobilization assay; assay type: cell-based, human; details: preincubation 15-30 min before ATII (valsartan, PD123319: 1 µM)
Protocol: (§7) If not indicated otherwise, cell culture reagents were obtained from Biochrom AG (Berlin, Germany). The human NEN cell lines BON and QGP-1 (pancreatic), LCC-18 (colonic), H727 and UMC-11 (pulmonary) and all other cell lines were cultured in RPMI 1640 supplemented with 10 % fetal calf serum in a humidified atmosphere at 37 °C and 5% CO2. BON cells were a kind gift of Courtney Townsend (University of Texas, Galveston, TX, USA). LCC-18 were kindly donated by Kjell Ö berg (University of Uppsala, Uppsala, Sweden) and KRJ-1 by Dr. Irvin Modlin (Yale University, New Haven, CT, USA). QGP-1 were obtained from the Japanese Collection of Research Bioresources.
(§8) All other cell lines were obtained from Cell Line Services (Heidelberg, Germany), DSMZ (Braunschweig, Germany) or ATCC (Manassas, VA, USA). Cells were cultured for no more than 20 passages. Mycoplasma testing was done at least every six months. Cell lines were authenticated by STR analysis at DSMZ (Braunschweig, Germany). Due to the lack of reference profiles for BON and LCC-18, their respective STR profile was characterized as unique and not contamina ted with any […]
(§9) Table 1. STR profiling data for BON and LCC -18 cells.
(§10) Experiments in 96-well format were performed as previously described (18). […]

[5] = target: T2, ATII receptor (AGTR1, AGTR2) (Homo sapiens, UniProt P30556); test: in vitro receptor autoradiography of tissue cryosections; assay type: binding; details: 1 µM competitor
T2 construct: Consecutive cryosections of each tissue were incubated with the radioligand in the absence or presence of an excess of non-labeled ATII; from tissue; host or cells: flash-frozen cryosections of patient pancreatic and small-intestinal NEN and of control pancreas, small intestine and liver
T2 sequence (P30556 1-359): T1 sequence (P30556 1-359)

[6] = target: T3, ATII receptor (AGTR1, AGTR2) (Homo sapiens, UniProt P50052); test: as above; assay type: binding; details: normal pancreas; 1 µM competitor
T3 construct: Consecutive cryosections of each tissue were incubated with the radioligand in the absence or presence of an excess of non-labeled ATII; from tissue; host or cells: flash-frozen cryosections of patient pancreatic and small-intestinal NEN and of control pancreas, small intestine and liver
T3 sequence (P50052 1-363): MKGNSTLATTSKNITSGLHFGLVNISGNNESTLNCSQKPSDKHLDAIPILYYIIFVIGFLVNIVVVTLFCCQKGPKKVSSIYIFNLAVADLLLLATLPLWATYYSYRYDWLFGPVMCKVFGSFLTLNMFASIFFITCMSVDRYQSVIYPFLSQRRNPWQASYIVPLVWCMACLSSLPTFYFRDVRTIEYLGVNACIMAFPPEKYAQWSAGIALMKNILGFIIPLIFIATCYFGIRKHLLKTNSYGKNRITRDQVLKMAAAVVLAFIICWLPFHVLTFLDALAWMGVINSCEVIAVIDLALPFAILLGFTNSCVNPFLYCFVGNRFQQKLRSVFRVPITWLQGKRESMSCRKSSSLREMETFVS

BON cells [7] = test: serotonin ELISA of cell supernatants; assay type: cell-based, human; details: 1 µM, 6 h
Protocol: as §7, §8, §9, §10

[8] = test system: AGTR1-positive BON tumors; test: in vivo near-infrared fluorescent imaging, xenograft; set-up: species or system mice
Protocol: seeded with 15,000/50,000 cells per well.
(§11) free medium for 10 min at room tem perature. A buffer baseline was obtained on the dynamic mass
(§12) used and plotted with GraphPad Prism 5.04.
(§13) For in vivo receptor targeting, the near -infrared fluorescent
(§14) in 100 µ L 0.9 % NaCl per animal).
(§15) fluorescence intensities.
(§16) animal research authorities.
First Linear Peptidic Urotensin -II Receptor Agonist. J. Med. Chem. 2016 , 59, 10100–10112,

[9] = test system: receptor negative QGP-1 tumors; details: 1 nmol i.v., NIRF imaging
Protocol: as §11, §12, §13, §14, §15, §16
J. Med. Chem. 2016 , 59, 10100–10112,

BON cells [10] = test: chromogranin A ELISA of cell supernatants; assay type: cell-based, human; details: 10 µM preincubation 15 min, 100 nM ATII
Protocol: as §7, §8, §9, §10

BON cells [11] = test: metabolic activity (AlamarBlue); assay type: cell-based, human; details: 96 h, different concentrations
Protocol: (§17) filter paper and measured in a gamma counter. Additional tissue sections were stained with hematoxylin and eosin for comparison with the corresponding autoradiograms.
as §7, with “Bioresources. […]” for “Bioresources.”
(§18) Cells were seeded in quadruplicates at a density of 5,000 cells in 50 µ L medium per well in 96 well plates, grown overnight and treated with the indicated ligand concentrations (on top of the well, final volume 100 µ L). After 96 h, metabolic activity was determined by addition of 100 µ L medium containing AlamarBlue™ redox indicator (Thermo Fisher, Waltham, MA, US) to each well. After 3 –4 h, the resulting fluorescence was measured with an EnVision Multilabel Plate Reader (Perkin Elmer, Waltham, USA). […]

H727 cells [12] = test: metabolic activity (AlamarBlue); assay type: cell-based, human; details: 96 h, different concentrations
Protocol: as §17
as §7, with “Bioresources. […]” for “Bioresources.”
as §18

AGTR1 [13] = target: AGTR1; set-up: method as in PMID 25313325; details: read-out: published Ki; cited from earlier work
[14] = target: angiotensin II (Homo sapiens), P01019; test: competition
Chain of angiotensin II (Homo sapiens), P01019 (P01019 whole entry, looked up): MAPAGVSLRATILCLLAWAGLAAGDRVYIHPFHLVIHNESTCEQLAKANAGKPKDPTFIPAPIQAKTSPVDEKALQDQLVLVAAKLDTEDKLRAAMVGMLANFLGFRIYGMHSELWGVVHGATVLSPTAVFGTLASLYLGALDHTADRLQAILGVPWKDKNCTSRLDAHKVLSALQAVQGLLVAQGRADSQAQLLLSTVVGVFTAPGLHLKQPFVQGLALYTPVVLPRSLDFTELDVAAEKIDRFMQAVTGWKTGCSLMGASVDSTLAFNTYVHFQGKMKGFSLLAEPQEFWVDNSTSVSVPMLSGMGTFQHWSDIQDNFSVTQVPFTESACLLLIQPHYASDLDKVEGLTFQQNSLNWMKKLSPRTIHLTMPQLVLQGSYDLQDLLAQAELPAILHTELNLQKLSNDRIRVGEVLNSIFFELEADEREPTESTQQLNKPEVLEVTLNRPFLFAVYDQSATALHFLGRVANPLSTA

[15] = target: angiotensin II (Homo sapiens), P01019; test: competition; remark: listed apart in the source
[16] = target: 125I-angiotensin II (Homo sapiens), P01019; test: radioligand
Chain of 125I-angiotensin II (Homo sapiens), P01019 (P01019 whole entry, looked up): as above

## CC[C@H](C)[C@H](NC(=O)[C@H](Cc1ccc(O)cc1)NC(=O)[C@@H](NC(=O)[C@H](CCCNC(=N)N)NC(=O)[C@@H](N)CC(=O)O)C(C)C)C(=O)N[C@@H](Cc1c[nH]cn1)C(=O)N1CCC[C@H]1C(=O)N[C@@H](Cc1ccccc1)C(=O)O [ATII, angiotensin II]
BON cells [1]; 24 h
  EC50: 4.9 ± 5.2 nM

## Cc1cc(Cn2cnc3c2C[C@@H](C(=O)O)N(C(=O)C(c2ccccc2)c2ccccc2)C3)ccc1N(C)C [PD123319]
BON cells [1]
  effect on ATII-induced calcium signal: did not influence
AGTR1 [2]
  displacement of 125I-ATII binding: not
AGTR1 [3]
  displacement of 125I-ATII binding: not
H727 cells [4]
  effect on ATII-induced calcium signal: did not influence
[5]; pancreatic NEN tissues #1, #4, #6, #8
  displacement of 125I-ATII binding: not
[5]; small-intestinal NEN tissues
  displacement of 125I-ATII binding: unable to compete
[6]
  displacement of 125I-ATII binding: displaced

## CCOc1nc2cccc(C(=O)O)c2n1Cc1ccc(-c2ccccc2-c2nc(=O)o[nH]2)cc1 [azilsartan]
BON cells [7]
  serotonin (5HT) secretion: did not modify

## CC(C)[C@H](NC(=O)[C@H](CCCNC(=N)N)NC(=O)CN(C)C(=O)CCC(=O)NCCCOCCOCCOCCCNC(=O)c1ccc2c(c1)C(C)(C)C(=CC=CC=CC=CC1=[N+](CCCCS(=O)(=O)[O-])c3ccccc3C1(C)C)N2CCCCS(=O)(=O)O)C(=O)N[C@@H](Cc1ccc(O)cc1)C(=O)N[C@H](C(=O)N[C@@H](Cc1c[nH]cn1)C(=O)N1CCC[C@H]1C(=O)N[C@@H](C)C(=O)O)C(C)C [saralasin–ITCC]
AGTR1 [2]
  decrease of affinity by ITCC versus published Ki of saralasin: 250 fold
[8]; 1 nmol i.v., NIRF imaging
  accumulation in AGTR1-positive xenograft tumors: selective accumulation
[8]; 6 hours after injection
  ex vivo organ imaging: accumulation in kidneys and liver
[9]
  uptake in QGP-1 tumors: Low non-significant uptake

## CCCCC(=O)N(Cc1ccc(-c2ccccc2-c2nnn[nH]2)cc1)[C@H](C(=O)O)C(C)C [valsartan]
BON cells [1]
  effect on ATII-induced calcium signal: significantly diminish
H727 cells [4]
  effect on ATII-induced calcium signal: significantly diminish
BON cells [10]
  effect on ATII-stimulated CgA secretion: diminished
BON cells [7]
  serotonin (5HT) secretion: did not modify
BON cells [11]
  metabolic activity: no change
H727 cells [12]
  metabolic activity: no change

## saralasin
AGTR1 [13]
  Ki: 1 nM

B1: Angiotensin II receptor type 1, P30556 (protein)
chain: T1 sequence (P30556 1-359)
[14]
  Ki: 0.1 nM
[15]
  Ki: 0.2 nM
[16]
  Kd: 0.6 nM
